Measured values from a melting point compilation (Tetko et al.; mined from patent text by program, amines drawn as free bases though some values may be those of a salt).

melting point [°C]	SMILES
154	Cc1ccc(-c2cc(OCC(=O)N3CCSCC3)c3c(C(F)(F)F)cccc3n2)cc1
174	CCOC(=O)C1=C(C)NC(N)=C(C(=O)OCCOC)C1c1cccc([N+](=O)[O-])c1 (configuration not stated)
68 to 70	C=CCOc1cc(-n2c(OCC)nc(C(F)(F)F)cc2=O)c(F)cc1Br
105 to 106	Cc1c(C)c2c(c(C)c1NC(=O)OC(C)(C)C)C(=O)C(C)(C)O2
149 to 150	O=C(O)Cc1cccc(F)c1OCCCc1cn(-c2ccc(C(F)(F)F)cn2)nc1C1CCCCC1
86 to 92	O=C(O)CCCCc1c[nH]c2ccc(F)cc12
91.5 to 93.5	CC1(C)Oc2c(ccc(Cl)c2N)C1=O
202 to 204	CC(=O)NC[C@H]1CN(c2ccc(N3CCN(C(=S)CN)CC3)c(F)c2)C(=O)O1
207	OC1CSC(Oc2cccc(-c3ccnc(Cl)c3)c2)C(O)C1O (configuration not stated)
243 to 245	CN(C)C=Nc1n[nH]c2ncnc(Nc3cccc(Cl)c3)c12
117 to 119	COC(=O)c1c(OCc2ccccc2)ccc2c1CC[C@@H](NC1CCC1)[C@@H]2O (relative stereo)
192 to 194	COc1ccccc1N1CCN(CC(O)CCN2C(=O)c3ccccc3C2=O)CC1 (configuration not stated)
225 to 227	NC(=O)COc1ccc(CN2C(=O)C3(COc4cc5c(cc43)OCCO5)c3ccccc32)cc1 (configuration not stated)
> 300	COc1ccc2c(c1)sc1[nH]c(=O)c(=O)[nH]c12
147 to 148	Oc1ccc(Nc2ccn(-c3ccccc3)n2)cc1
112 to 113	COC(=O)c1cccc(CN2C(=O)C(CCOc3ccc(CCNC(=O)OC(C)(C)C)cc3)Oc3ccccc32)c1 (configuration not stated)
148 to 149	CCOC(=O)c1c[nH]cc1C(=O)OCC
69 to 71	CCCCCCCCOc1ccc(C#N)c(O)c1
93 to 94	COC(=O)c1ccc2occ(-c3cccc(OC(F)(F)F)c3)c2c1
143 to 144	S=C(NC(=Nc1ccccc1)c1ccccc1)Nc1ccccc1
106 to 107	Fc1ccc(CNc2nc(Nc3cccc(C(F)(F)F)c3)nc(C(F)(F)F)n2)cc1
204 to 206	CC(C)(C)c1cc(C(=O)NCCc2ccc([N+](=O)[O-])cc2)cc(C(C)(C)C)c1O
178 to 180	O[C@@H]1CCN(Cc2nc(-c3ccc4c(c3)Nc3ccccc3S4)cs2)C1
177 to 179	Cc1c(CC(=O)O)c2cc(O)ccc2n1C(=O)c1ccc(Cl)c(Cl)c1
156 to 157	CC(C)(C)OC(=O)C(C#N)C(c1cccc2ccccc12)c1cccc2ccccc12 (configuration not stated)

melting point [°C]	SMILES
236 to 238	CC1(C)OC(=O)Nc2ccc(-c3coc(C=NO)c3)cc21
177 to 180	COCC(=O)Nc1ccc2ncnc(Nc3cccc(Cl)c3)c2c1
98 to 102	C#CCOc1nc(NN)c(C(F)(F)F)cc1Cl
108 to 110	COc1ccc(CNc2ccccc2C(=O)Nc2ccc(Cl)c(C(F)(F)F)c2)cn1
169 to 171	NC(=O)N1CCCC2=C1CCc1cc(Cl)ccc12
248 to 250	Fc1ccc(Nc2ncnc3cnc(N4CCN(c5ccncc5)CC4)nc23)cc1Cl
119 to 121	Fc1ccccc1-c1nc2cccnc2s1
182	Cc1csc(N2CCN(CC(O)c3ccc(O)c(C(N)=O)c3)CC2)n1 (configuration not stated)
78 to 79	CN1NC=CC1c1ccc(C(=O)N2Cc3cccn3Cc3ccccc32)c(Cl)c1 (configuration not stated)
190 to 192	COc1cc2cccc3c2c(n1)-c1ccccc1C3=O
161 to 162	CCCSc1c(C=NO)c(=O)n(C)c(=O)n1C
159	COc1ccccc1NC(=O)[C@@H]1Cc2[nH]cnc2CN1C(C)=O
154	N#CC=C(c1ccc(-c2ccccc2)cc1)c1ccc(-c2ccccc2)cc1
261 to 263	CC(=O)N1C(=O)NC(=O)C12c1ccccc1N(C)C(=O)N2C (configuration not stated)
170 to 171	O=C1SCC(O)=C1Cc1ccc(OCCc2ccccc2)cc1
50 to 80	CS(=O)(=O)c1ccc(-c2cnn(-c3cccc(Cl)c3)c(=O)c2COc2ccc(F)cc2)cc1
184 to 186	CCOC(=O)c1ncn2c(-c3cccnc3)ccnc12
58 to 60	COc1ccccc1Oc1ccc(Br)cc1OC
139 to 141	Fc1cc(F)c(-c2c(Cl)nc3nccnc3c2Cl)c(F)c1
230 to 255	CC(=O)Nc1cc(N(C)C)c([N+](=O)[O-])cc1C(=O)O
64 to 66	CC(O)(c1ccc(Cl)cc1)c1cc2ccccc2o1 (configuration not stated)
120 to 121	C(=C\c1nc(COc2ccc(CCCn3ccnc3)cn2)co1)/c1ccccc1
221 to 229	COc1cn(-c2ccc(-n3nccc3O)cc2F)nc(-c2ccnn2-c2ccccc2)c1=O
239 to 240	O=C1OCc2c(c3cc(-c4ccc(OC(F)(F)F)cc4)ccc3n2Cc2ccccc2)C1=O
191 to 193	O=C(O)CCCCC(=O)c1ccc2cc(O)ccc2c1

melting point [°C]	SMILES
206 to 207	CCOC(=O)c1ccc(Nc2nnc(-c3ccc(Oc4ccccc4)cc3)s2)cc1
124 to 128	Cc1cccc(C)c1C(c1cccc2ccccc12)C(C#N)C(=O)OC(C)(C)C (configuration not stated)
79 to 81	CC(C)(C)c1cccc(CC(O)CO)c1OCc1ccccc1 (configuration not stated)
135 to 138	CN(C)c1cc(Oc2cccc(C(F)(F)F)c2)nc(C(=O)Nc2ccccc2)c1
272 to 275	Nc1ccc(Oc2ccc(P(=O)(c3ccccc3)c3ccccc3)c(Oc3ccc(N)cc3)c2)cc1
154 to 156	Nc1ncc(-c2ccc3c(c2)CCC(NCC(F)(F)F)CC3)c(N)n1 (configuration not stated)
112 to 113	O=[N+]([O-])c1cc(NS(=O)(=O)CCl)ccc1F
> 300	CCCn1c(=O)c2[nH]c(-c3cc(C)n(CC(=O)Nc4cccc5ccccc45)n3)nc2n(CCC)c1=O
221 to 224	Cc1cc(Oc2cccnc2)c(S(C)(=O)=O)cc1C(=O)N=C(N)N
186 to 187	CC(C)SC(=O)N1CCN(c2ccc3ncc(Br)n3n2)CC1
221 to 222	Cc1cc(C)cc(Sc2c(C)c[nH]c(=O)c2NC=O)c1
160 to 162	NS(=O)(=O)c1ccc(/C(=C(\CCO)C(=O)O)c2ccc(F)cc2)cc1
160	Clc1cccc(C2=Nc3cccnc3Nc3ccccc32)c1
236 to 240	O=C1Cn2nccc2-c2ccccc2N1
117 to 118	CCOC(=O)c1cn2c(cc(OC(C)C)c3ccc(OC)cc32)n1
213 to 215	O=S(=O)(/C=C/c1ccc(Br)cc1)CS(=O)(=O)/C=C/c1ccc(Br)cc1
171 to 176	Cn1ccnc1CCNS(=O)(=O)c1ccccc1NS(=O)(=O)c1cccc(C(F)(F)F)c1
216	Fc1ccc(Cn2c(NC3CCNCC3)nc3ccccc32)cc1
97 to 98	Cc1ccc(-c2cc(C(F)(F)F)nn2-c2ccc(S(=O)(=O)Cl)cc2)cc1
158 to 162	CC1(C)CCC(C)(C)c2cc(N(CCCCOCc3ccccc3)C(=O)Nc3ccc(C(=O)O)cc3)ccc21
25 to 30	CCOC(=O)C(=CNc1cccc2c1CCC2)C(=O)OCC
177	CC(C)(C)c1ccc(/C=C/C(=O)Nc2ccc3ocnc3c2)cc1
100 to 102	CNC(=O)C(=NOC)c1cccc(Cl)c1COc1ccc(Sc2ccc(C)cc2)cn1
135	CN(C)/N=C(/C(=O)O)c1ccc(OCCOc2ccc3ccccc3c2)cc1
136 to 138	COC(=O)c1ccc(Cc2c[nH]c3ccc(C(=O)OC)cc23)c(OC)c1

melting point [°C]	SMILES
144 to 146	O=C(O)C(Cc1cccc2c1CCCC2)Cc1cccc2c1CCCC2
145 to 146	CCOC(=O)C=Cc1ccc(Oc2ccc([N+](=O)[O-])cc2)c(Cl)c1Cl
81 to 82	O=C(c1ccccc1F)c1cc(Cl)ccc1CSc1ccccc1
168 to 170	COC(=O)CCc1ccc(-n2c(C)cn(-c3ccc(C#N)cc3)c2=O)cc1
214 to 216	CC(=O)N(C)c1cc2c(nc(C)n2C)c2c1CCC(c1ccccc1)O2 (configuration not stated)
> 395	Cc1cc(C)c2c(O)c3c(=O)[nH][nH]c(=O)c3nc2c1
133 to 134	O=S1(=O)NCN(CCF)c2ccc(F)cc21
245	Cn1c(=NC(=S)Nc2ccccc2)n(C)c2ccccc21
170 to 172	CSc1ncc(Cc2cccs2)c(=O)[nH]1
83 to 85	CN(C)C(=O)C1=C(C(=O)Nc2ccc(Br)cc2F)CCCC1
73.8 to 75.2	CC(=O)N(C#N)C/C=C\CN(C#N)C(C)=O
130 to 133	C=Cn1nc(-c2ccc(OC)cc2)cc(C(=O)NC)c1=O
202 to 203	CC(=O)N1CCN(c2nc(N)ccc2[N+](=O)[O-])CC1
125 to 126	O=c1cc(C2CCCC2)oc2ccc(OCCCCCCCl)cc12
138 to 145	CON=CC(C)(C#N)NC(=O)C(Oc1ccc2ncc(Br)cc2c1)SC (configuration not stated)
112 to 115	Cc1nc(C)c(Cl)c(NCc2nccc(SCCCSCCSc3ncccn3)c2C)n1
215 to 219	O=c1oc(-c2ccccc2)cc(O)c1Oc1ccccc1
73 to 74	CCc1c(CC(C)(C)C(=O)O)ccc2c1OCO2
252 to 254	NC(=O)c1cccc(Cn2ccc(OCc3ccc(F)cc3F)c(Cl)c2=O)c1F
71 to 72.5	CCCc1c(OCCCSc2nnc(SCC(=O)OCC)s2)ccc(C(C)=O)c1O
163 to 164	COc1cc2c(cc1OCc1ccccc1)CCN(C(=O)c1ccccc1OC)C2=O
81 to 84	C[N+]([O-])=C(Cn1ccnc1)c1ccc(F)cc1

SMILES	melting point [°C]
COc1cccc2c1CCNCC2	44.3 to 45
COC(=O)c1ccc(CCl)nc1	63.5 to 63.8
CCC(O)(C#Cc1ncn2c1CN(C)C(=O)c1c(Cl)cccc1-2)CC	186 to 188
O=C(NC1CCN(CCc2ccccc2)CC1)c1ccccc1	164 to 167
COc1ccc2c3cc(C(=O)NCCc4ccc(Cl)cc4)ccc3n(CC3CCCCC3)c2c1	179 to 181
